Assay results published in ChEMBL document CHEMBL5052847, “Identification of compounds that inhibit stress granule formation and tau aggregation by targeting tia1” (2021).
Active and inactive are the calls of the source. No cut-off for these calls is given here.

Assays:
Homo sapiens = organism: Homo sapiens; assay: Inhibition of recombinant TIA1 (unknown origin) multimerization measured by FRET assay
HT-22 = assay: Inhibition of TIA1 endogenously expressed in mouse HT-22 cells at 25 to 100 uM assessed as sodium arsenite-induced stress granule formation and measured by FRET assay relative to control; assay type: cell-based; conditions: dose 25-100 µM

| Compound | inhibition (Homo sapiens) | inhibition (HT-22) |
| --- | --- | --- |
| O=c1c2ccccc2sn1-c1cccc(S(=O)(=O)N2CCCCCC2)c1 | Active | Active |
| O=c1c2ccccc2sn1-c1cccc(S(=O)(=O)Nc2ccc(Cl)cc2)c1 | Active | Active |
| O=c1c2ccccc2sn1-c1ccc(Cl)c(S(=O)(=O)N2CCOCC2)c1 | Active | Active |
| O=c1c2ccccc2sn1-c1ccc(Cl)cc1 | Active | Active |
| O=C1c2ccccc2S(=O)(=O)N1c1ccccc1F | Active | Active |
| O=c1c2ccccc2sn1-c1nccs1 | Active | Active |
| O=C(O)c1ccccc1NS(=O)(=O)c1cccc(-n2sc3ccccc3c2=O)c1 | Active | Active |

Further lines, with some results ahead:

| inhibition (Homo sapiens) | Compound | inhibition (HT-22) |
| --- | --- | --- |
| Active | Cc1ccc(C)c(-n2sc3cc(F)ccc3c2=O)c1 | Active |
| Active | Cc1cccc(-n2sc3ccccc3c2=O)c1 | Active |
| Active | CCN(CC)S(=O)(=O)c1cccc(-n2sc3ccccc3c2=O)c1 | Active |
| Active | CN(C)S(=O)(=O)c1cccc(-n2sc3ccccc3c2=O)c1 | Active |
